Where no end group is shown, it is not given here. Bounds are passed on as bounds.

For the test, the target named is MHC II molecules. The test can be described thus: MHC/peptide competition binding assay with a radiolabelled known MHC binding peptide. Particulars: purified MHC, incubation 2-4 days, non-binding defined as IC50≥30,000 nM. Here is the method:
Measurement of MHC/peptide interactions: Computational prediction algorithm was used to generate a list of putative non-binding peptides. Those peptides were synthesized and binding to MHC was measured as described in Sidney J et al, 2013.
Briefly, competition assays using different concentrations of WT and modified gluten peptides are conducted by diluting the peptides in NP40 buffer, and incubation for 2-4 days with purified MHC and a radiolabelled known MHC binding peptide. MHC II molecules are purified by affinity chromatography, and peptides are radiolabeled using the chloramine T method. After an incubation period, the bound and unbound radiolabeled species are separated, and their relative amounts are determined by either size-exclusion gel-filtration chromatography or monoclonal antibody capture of MHC. The percent of bound radioactivity is then determined. For each modified peptide, IC50 values of WT and modified peptide are calculated. The validated gluten peptide epitopes are analyzed for MHC binding as a positive control. Some of the peptides are tested also in a deamidated form.
As to FPPQPHPFPPQPQPF [Variant P3h], the half-inhibitory concentration (IC50) is over 40 µM.
HLPGPQPHLSYPQPH [Variant P2e] came in with an IC50 of over 40 µM.
As for LQLQPFPQPHLFPPQ [Variant P1c], the figure is 38.6 µM; as for LQLQPFPQPPLPYGQ [Variant P1e], 30.7 µM; as for PGGQPHLPGGQPQPF [Variant P3g], over 40 µM.
To PQPFPPLPYPQPQSF [Variant P3i] belongs over 40 µM.
Take PYSQPHRPYHQPQPF [Variant P3e]: the IC50 is over 40 µM.
QLPYSQPHRPYHQPQ [Variant P2d]: the IC50 is over 40 µM.
As for SLPMPQPSLRYRQPS [Variant P2i], the figure is over 40 µM; as for TLPSPQPTLGYGQPT [Variant P2h], over 40 µM.

As a reminder, the IC50 is the point on the concentration scale where inhibition reaches its midpoint. High values mean weaker potency in that assay, low ones greater potency in that assay.
